Data from patent US20100137345A1, “PROPHYLACTIC AND THERAPEUTIC USE OF SIRTUIN INHIBITORS IN TNF-ALPHA MEDIATED PATHOLOGIES” (Universite Libre de Bruxelles, priority 2007, published 2010).
Entries after “also recorded” stand apart in the source; their conditions may differ.

How the values were obtained:
RAW264.7 = assay: TNF-alpha mRNA accumulation in LPS-stimulated RAW264.7 (quantitative RT-PCR); format: cell-based, murine; settings: RAW264.7, stimulated 2 h by LPS, FIG. 3
Procedure: RAW264.7 were incubated in the presence of sirtuin inhibitors or equivalent doses of solvent (DMSO) as indicated and stimulated for 2 h by LPS. Expression of mRNA encoding for TNF-α was monitored using quantititative RT-PCR using standard procedures and the following forward and reverse primers (fwd: […]; rev: gctacgacgtgggctacag). […] Collectively, these observations indicate that sirtuin inhibitors may affect TNF-alpha secretion by interfering with at a post-transcriptional step.

murine dendritic cells [1] = assay: RANTES secretion by CpG-stimulated murine dendritic cells (ELISA); format: cell-based; settings: inferred from RANTES secretion, FIG. 2
Procedure: Murine dendritic cells were cultured in the presence of sirtuin inhibitors as indicated and stimulated overnight with graded doses of CpG. Cell supernatants were tested for RANTES content by ELISA.

[2] = tested on: murine macrophage-like cell line RAW264.7; assay: TNF-alpha secretion by LPS-stimulated RAW264.7 cells (ELISA); format: cell-based; settings: stimulated 2 h with 100 ng/ml LPS, FIG. 1B
Procedure: (§1) Murine dendritic cells (FIG. 1A) or the murine macrophage-like cell line RAW264.7 cells (FIG. 1B) were cultured in the presence of sirtuin inhibitors as indicated or an equivalent amount of solvent (DMSO) and stimulated overnight with graded doses of CpG (FIG. 1A) or for 2 h with 100 ng/ml of lipopolysaccharide (LPS) from gram-negative bacteria. Cell supernatants were tested for tumor necrosis factor (TNF-alpha) content by ELISA.

murine dendritic cells [3] = assay: TNF-alpha secretion by CpG-stimulated murine dendritic cells (ELISA); format: cell-based; settings: stimulated overnight with graded doses of CpG, FIG. 1A
Procedure: as §1

[4] = Yang et al. 2007; cited from earlier work
SIRT1 = SIRT1 (Homo sapiens, UniProt Q96EB6); settings: Howitz et al. 2003; cited from earlier work
Chain of SIRT1 (Q96EB6 whole entry): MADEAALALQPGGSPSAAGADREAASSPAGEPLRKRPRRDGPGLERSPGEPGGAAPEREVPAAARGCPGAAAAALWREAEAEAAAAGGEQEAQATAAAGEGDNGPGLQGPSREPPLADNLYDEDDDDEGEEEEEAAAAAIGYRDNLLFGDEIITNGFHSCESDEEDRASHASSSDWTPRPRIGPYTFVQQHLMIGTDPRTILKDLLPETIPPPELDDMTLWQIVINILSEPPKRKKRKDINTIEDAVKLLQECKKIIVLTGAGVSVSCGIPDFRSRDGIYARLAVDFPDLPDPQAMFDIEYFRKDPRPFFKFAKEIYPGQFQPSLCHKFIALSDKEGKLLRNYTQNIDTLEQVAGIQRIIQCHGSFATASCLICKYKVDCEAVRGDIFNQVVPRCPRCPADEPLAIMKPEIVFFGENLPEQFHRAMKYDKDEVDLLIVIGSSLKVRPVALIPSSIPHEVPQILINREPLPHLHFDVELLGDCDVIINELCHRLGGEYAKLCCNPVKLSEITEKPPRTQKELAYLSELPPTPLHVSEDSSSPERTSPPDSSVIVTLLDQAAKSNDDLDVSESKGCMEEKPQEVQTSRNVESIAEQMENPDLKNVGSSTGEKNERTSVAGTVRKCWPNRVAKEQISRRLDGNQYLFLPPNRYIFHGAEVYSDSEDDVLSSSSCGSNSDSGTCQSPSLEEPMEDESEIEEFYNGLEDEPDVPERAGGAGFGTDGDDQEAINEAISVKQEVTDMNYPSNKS

Compound: Oc1ccc2ccccc2c1Cc1c(O)nc(S)nc1-c1ccccc1 [cambinol, 5-((2-hydroxy-1-naphthyl)methyl)-2-mercapto-6-phenyl-4-pyrimidinol]
- intracellular accumulation of TNF-alpha mRNA (RAW264.7): do not significantly affect TNF-alpha mRNA accumulation; also recorded: without significantly affecting the intracellular accumulation of TNF-alpha mRNA
- general inhibition of protein synthesis or induction of cell death (murine dendritic cells [1]): do not generally inhibit protein synthesis nor induce cell death
- TNF-alpha secretion / cytokine production (supernatant TNF-alpha content by ELISA) [2]: inhibit TNF-α protein synthesis; also recorded: downregulation of TNF-alpha secretion; also recorded: may downregulate TNF-alpha cytokine production
- TNF-alpha secretion (supernatant TNF-alpha content by ELISA) (murine dendritic cells [3]): downregulation of TNF-alpha secretion

Compound: CC(NC(=O)c1ccccc1/N=C/c1c(O)ccc2ccccc12)c1ccccc1 (stereo not shown) [sirtinol, 2-[(2-Hydroxynaphthalen-1-ylmethylene)amino]-N-(1-phenethyl)benzamide]
- release of inflammatory cytokines induced by cigarette smoke extracts [4]: could increase the release of inflammatory cytokines
- intracellular accumulation of TNF-alpha mRNA (RAW264.7): do not significantly affect TNF-alpha mRNA accumulation; also recorded: without significantly affecting the intracellular accumulation of TNF-alpha mRNA
- general inhibition of protein synthesis or induction of cell death (murine dendritic cells [1]): do not generally inhibit protein synthesis nor induce cell death
- TNF-alpha secretion / cytokine production (supernatant TNF-alpha content by ELISA) [2]: inhibit TNF-α protein synthesis; also recorded: downregulation of TNF-alpha secretion; also recorded: may downregulate TNF-alpha cytokine production
- TNF-alpha secretion (supernatant TNF-alpha content by ELISA) (murine dendritic cells [3]): downregulation of TNF-alpha secretion

Compound: Cc1ccc(C(=O)Nc2ccc(S(=O)(=O)O)c3cc(S(=O)(=O)O)cc(S(=O)(=O)O)c23)cc1NC(=O)c1cccc(NC(=O)Nc2cccc(C(=O)Nc3cc(C(=O)Nc4ccc(S(=O)(=O)O)c5cc(S(=O)(=O)O)cc(S(=O)(=O)O)c45)ccc3C)c2)c1 [suramin]
- inhibition of SIRT1 enzymatic activity (SIRT1): found to inhibit SIRT1 enzymatic activity
